Results published in patent publication US20250084039A1, “4-SUBSTITUTED AMINOISOQUINOLINE DERIVATIVES” (Purdue Research Foundation, priority 2016, published 2025).
“And” between values parts separate entries of the source, which are not always exact repeats. Identical values can stand only once. Like-named read-outs stand apart in the source and are kept apart here.

Legend:
[1] = target: CDK9/cyclin K (Homo sapiens (Human), UniProt P50750); experiment: Reaction Biology HotSpot kinase assay; type: biochemical; conditions: 500 nM compound; for inhibition at 0.5 µM: read-out: Percentage kinase inhibition CDK9/cyclin K
Method in brief: (§1)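 Each compound was tested at 500 nM, with 33P incorporation from ATP (100 μM final, including [γ-33P]ATP) measured by P81 paper capture after a 2 h room-temperature reaction.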

[2] = target: EPHA3 (Homo sapiens (Human), UniProt P29320); experiment: Reaction Biology HotSpot kinase assay; type: biochemical; conditions: 500 nM compound; for inhibition at 0.5 µM: read-out: Percentage kinase inhibition EPHA3
Method in brief: as §1

[3] = target: FAK/PTK2 (Homo sapiens (Human), UniProt Q05397); experiment: Reaction Biology HotSpot kinase assay; type: biochemical; conditions: 500 nM compound; for inhibition at 0.5 µM: read-out: Percentage kinase inhibition FAK/PTK2
Method in brief: as §1

[4] = target: IGF1R (Homo sapiens (Human), UniProt P08069); experiment: Reaction Biology HotSpot kinase assay; type: biochemical; conditions: 500 nM compound; for inhibition at 0.5 µM: read-out: Percentage kinase inhibition IGF1R
Method in brief: as §1

[5] = target: IRR/INSRR (Homo sapiens (Human), UniProt P14616); experiment: Reaction Biology HotSpot kinase assay; type: biochemical; conditions: 500 nM compound; for inhibition at 0.5 µM: read-out: Percentage kinase inhibition IRR/INSRR
Method in brief: as §1

[6] = target: TAOK1 (Homo sapiens (Human), UniProt Q7L7X3); experiment: Reaction Biology HotSpot kinase assay; type: biochemical; conditions: 500 nM compound; for inhibition at 0.5 µM: read-out: Percentage kinase inhibition TAOK1
Method in brief: as §1

[7] = tested on: MV4-11; experiment: IC50 determination (proliferation assay, CellTiter-Blue); type: cell-based
Method in brief: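 MOLM14 and MV4-11 cells seeded about 18 h before compound addition (DMSO-diluted), then 72 h exposure.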

[8] = target: FLT3 (D835V) (Homo sapiens (Human), UniProt P36888, D835V); experiment: DiscoverX Kd Elect binding
Text: (§2) Although the current drugs on the market or in clinical trials are relatively successful in killing the AML leukemia cells, they currently are unable to deal with secondary mutations that occur after TKI treatment, such as FLT3 ([…]).

[9] = target: FLT3 (ITD) (Homo sapiens, UniProt P36888, ITD); experiment: DiscoverX Kd Elect binding; conditions: Kd FLT3 (ITD)
Text: as §2

[10] = target: FLT3 (ITD, F691L) (Homo sapiens, UniProt P36888, F691L/ITD); experiment: DiscoverX Kd Elect binding
[11] = target: ABL1 phosphorylated (Homo sapiens (Human), UniProt P00519); experiment: DiscoverX Kd Elect binding
[12] = target: ABL1 non-phosphorylated (Homo sapiens (Human), UniProt P00519); experiment: DiscoverX Kd Elect binding
[13] = target: AURKA (Homo sapiens (Human), UniProt O14965); experiment: DiscoverX Kd Elect binding
Description: (§3) HCK is expressed more in human primary leukemic stem cells than in human normal hematopoietic stem cells. […] Other protein kinases such as SYK, BRAF, p38 (p38MAPK), PDGFRα/β, FGFR1, RET, FLT4, Tie2 have also been linked to leukemia. […] Thus, it was tested if HSN286 and analogs were also targeting kinases that play critical roles in AML. […] (Table 9). The inhibition of the Src-kinase family could be important clinically because these kinases are downstream of FLT3. In the event of FLT3 mutation, the inhibition of the Src-family kinases could still lead to proliferation inhibition.

[14] = target: BLK (Homo sapiens (Human), UniProt P51451); experiment: DiscoverX Kd Elect binding
Description: as §3

[15] = target: FAK (Homo sapiens (Human), UniProt Q05397); experiment: DiscoverX Kd Elect binding
Description: as §3

[16] = target: FYN (Homo sapiens (Human), UniProt P06241); experiment: DiscoverX Kd Elect binding
Description: as §3

[17] = target: HCK (Homo sapiens (Human), UniProt P08631); experiment: DiscoverX Kd Elect binding
Description: as §3

[18] = target: KIT (Homo sapiens (Human), UniProt P10721); experiment: DiscoverX Kd Elect binding
Description: as §3

[19] = target: LYN (Homo sapiens (Human), UniProt P07948); experiment: DiscoverX Kd Elect binding
Description: as §3

[20] = target: PIK3CA (Homo sapiens (Human), UniProt P42336); experiment: DiscoverX Kd Elect binding
Description: as §3

[21] = target: PIM1 (Homo sapiens (Human), UniProt P11309); experiment: DiscoverX Kd Elect binding
Description: as §3

[22] = target: PLK1 (Homo sapiens (Human), UniProt P53350); experiment: DiscoverX Kd Elect binding
Description: as §3

[23] = target: T1, SRC (Homo sapiens (Human), UniProt P12931); experiment: DiscoverX Kd Elect binding
Description: as §3

[24] = target: T1, SRC; experiment: Inhibition of kinase enzymatic activity (IC50); type: biochemical

Chain of IGF1R (P08069 31-1367): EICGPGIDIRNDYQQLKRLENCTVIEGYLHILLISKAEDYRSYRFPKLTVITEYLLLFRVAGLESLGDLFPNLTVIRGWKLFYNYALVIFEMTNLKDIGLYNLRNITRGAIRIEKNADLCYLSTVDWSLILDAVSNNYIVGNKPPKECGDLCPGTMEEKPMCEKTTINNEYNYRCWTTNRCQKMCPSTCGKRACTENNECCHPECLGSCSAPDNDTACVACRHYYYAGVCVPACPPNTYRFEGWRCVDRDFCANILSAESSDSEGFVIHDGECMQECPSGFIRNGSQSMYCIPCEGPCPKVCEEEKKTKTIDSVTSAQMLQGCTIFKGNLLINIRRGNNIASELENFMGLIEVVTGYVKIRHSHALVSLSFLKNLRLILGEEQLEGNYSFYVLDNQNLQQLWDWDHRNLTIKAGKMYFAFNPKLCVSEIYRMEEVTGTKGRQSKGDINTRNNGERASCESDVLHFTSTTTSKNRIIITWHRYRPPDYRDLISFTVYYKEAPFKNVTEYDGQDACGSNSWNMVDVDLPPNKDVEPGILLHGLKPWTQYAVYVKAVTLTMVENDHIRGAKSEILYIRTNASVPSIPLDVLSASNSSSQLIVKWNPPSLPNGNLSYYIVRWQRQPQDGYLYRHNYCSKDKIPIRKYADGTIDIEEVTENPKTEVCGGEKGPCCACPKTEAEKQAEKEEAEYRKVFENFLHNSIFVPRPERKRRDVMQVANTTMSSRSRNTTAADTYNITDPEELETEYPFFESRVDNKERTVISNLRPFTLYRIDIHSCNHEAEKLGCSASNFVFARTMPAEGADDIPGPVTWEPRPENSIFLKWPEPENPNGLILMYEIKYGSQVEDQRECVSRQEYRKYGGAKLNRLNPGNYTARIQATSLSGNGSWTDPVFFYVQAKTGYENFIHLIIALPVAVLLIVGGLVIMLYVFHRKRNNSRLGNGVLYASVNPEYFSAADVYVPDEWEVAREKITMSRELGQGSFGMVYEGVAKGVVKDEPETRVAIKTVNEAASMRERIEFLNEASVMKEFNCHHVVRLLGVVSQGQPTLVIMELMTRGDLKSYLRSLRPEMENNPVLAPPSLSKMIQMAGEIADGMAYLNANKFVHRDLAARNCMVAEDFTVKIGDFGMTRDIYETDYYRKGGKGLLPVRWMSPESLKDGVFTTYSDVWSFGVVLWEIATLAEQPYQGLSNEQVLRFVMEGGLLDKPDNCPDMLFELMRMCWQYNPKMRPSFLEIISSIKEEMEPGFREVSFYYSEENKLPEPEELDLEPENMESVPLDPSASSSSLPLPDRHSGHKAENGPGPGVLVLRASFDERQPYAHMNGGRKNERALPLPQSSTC
Chain of IRR/INSRR (P14616 27-1297): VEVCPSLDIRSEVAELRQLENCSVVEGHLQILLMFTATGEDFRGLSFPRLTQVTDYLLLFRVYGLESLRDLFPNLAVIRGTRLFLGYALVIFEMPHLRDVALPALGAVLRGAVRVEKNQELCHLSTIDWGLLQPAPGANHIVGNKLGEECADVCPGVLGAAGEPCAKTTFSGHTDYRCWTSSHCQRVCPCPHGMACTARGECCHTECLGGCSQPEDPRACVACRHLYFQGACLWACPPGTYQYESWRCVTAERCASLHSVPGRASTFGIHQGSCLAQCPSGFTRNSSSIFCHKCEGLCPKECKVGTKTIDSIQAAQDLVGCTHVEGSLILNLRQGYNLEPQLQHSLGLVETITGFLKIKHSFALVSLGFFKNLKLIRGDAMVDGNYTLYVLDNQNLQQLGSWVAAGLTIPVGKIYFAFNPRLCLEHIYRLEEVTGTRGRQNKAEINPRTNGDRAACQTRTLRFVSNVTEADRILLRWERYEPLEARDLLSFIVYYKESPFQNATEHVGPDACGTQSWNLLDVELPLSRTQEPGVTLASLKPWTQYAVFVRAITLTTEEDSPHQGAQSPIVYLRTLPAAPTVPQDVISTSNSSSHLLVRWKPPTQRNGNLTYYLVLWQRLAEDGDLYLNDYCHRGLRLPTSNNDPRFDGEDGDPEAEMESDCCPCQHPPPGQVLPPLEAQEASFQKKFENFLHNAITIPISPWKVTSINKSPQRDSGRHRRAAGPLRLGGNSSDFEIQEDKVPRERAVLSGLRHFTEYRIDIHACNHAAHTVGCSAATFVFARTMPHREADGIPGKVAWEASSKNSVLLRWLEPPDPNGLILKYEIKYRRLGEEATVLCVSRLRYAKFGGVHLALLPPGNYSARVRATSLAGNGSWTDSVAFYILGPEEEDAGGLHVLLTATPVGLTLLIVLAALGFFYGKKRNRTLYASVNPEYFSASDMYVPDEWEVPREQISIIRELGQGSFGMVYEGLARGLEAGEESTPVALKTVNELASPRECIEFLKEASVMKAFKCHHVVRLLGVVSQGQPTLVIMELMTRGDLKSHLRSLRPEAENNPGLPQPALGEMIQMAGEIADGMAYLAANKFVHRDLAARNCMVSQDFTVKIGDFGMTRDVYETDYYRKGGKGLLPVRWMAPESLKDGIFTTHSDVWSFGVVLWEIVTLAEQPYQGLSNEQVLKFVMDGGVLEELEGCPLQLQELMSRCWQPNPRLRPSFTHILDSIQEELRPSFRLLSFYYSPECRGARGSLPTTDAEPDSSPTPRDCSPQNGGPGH
Chain of FAK/PTK2 (Q05397 whole entry): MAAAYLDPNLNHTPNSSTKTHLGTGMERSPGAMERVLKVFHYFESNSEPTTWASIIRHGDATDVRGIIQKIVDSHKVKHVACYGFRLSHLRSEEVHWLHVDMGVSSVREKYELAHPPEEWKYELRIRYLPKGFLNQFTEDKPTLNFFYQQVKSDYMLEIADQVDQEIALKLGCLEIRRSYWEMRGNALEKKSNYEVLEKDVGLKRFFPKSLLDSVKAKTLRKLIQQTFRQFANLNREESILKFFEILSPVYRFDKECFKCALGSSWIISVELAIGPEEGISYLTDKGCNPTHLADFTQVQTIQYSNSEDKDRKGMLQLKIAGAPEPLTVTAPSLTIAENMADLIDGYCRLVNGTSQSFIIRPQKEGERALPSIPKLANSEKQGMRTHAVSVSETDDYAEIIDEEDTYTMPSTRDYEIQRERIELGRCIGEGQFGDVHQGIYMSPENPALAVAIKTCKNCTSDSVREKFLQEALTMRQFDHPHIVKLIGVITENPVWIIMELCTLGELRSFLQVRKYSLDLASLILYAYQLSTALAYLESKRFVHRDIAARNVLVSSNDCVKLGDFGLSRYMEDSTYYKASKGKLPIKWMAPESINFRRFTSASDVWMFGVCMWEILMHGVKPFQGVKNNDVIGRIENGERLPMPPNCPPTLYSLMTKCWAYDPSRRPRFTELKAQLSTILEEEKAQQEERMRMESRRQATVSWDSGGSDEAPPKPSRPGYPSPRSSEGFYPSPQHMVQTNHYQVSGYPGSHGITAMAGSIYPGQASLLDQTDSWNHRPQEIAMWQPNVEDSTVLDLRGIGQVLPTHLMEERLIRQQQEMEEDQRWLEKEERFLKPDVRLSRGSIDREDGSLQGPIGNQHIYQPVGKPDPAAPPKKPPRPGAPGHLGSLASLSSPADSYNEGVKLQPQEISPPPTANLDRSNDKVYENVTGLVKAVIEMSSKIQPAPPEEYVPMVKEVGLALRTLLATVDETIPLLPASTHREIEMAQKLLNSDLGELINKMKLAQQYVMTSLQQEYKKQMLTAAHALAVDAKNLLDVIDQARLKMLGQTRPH
T1 sequence (P12931 whole entry, looked up): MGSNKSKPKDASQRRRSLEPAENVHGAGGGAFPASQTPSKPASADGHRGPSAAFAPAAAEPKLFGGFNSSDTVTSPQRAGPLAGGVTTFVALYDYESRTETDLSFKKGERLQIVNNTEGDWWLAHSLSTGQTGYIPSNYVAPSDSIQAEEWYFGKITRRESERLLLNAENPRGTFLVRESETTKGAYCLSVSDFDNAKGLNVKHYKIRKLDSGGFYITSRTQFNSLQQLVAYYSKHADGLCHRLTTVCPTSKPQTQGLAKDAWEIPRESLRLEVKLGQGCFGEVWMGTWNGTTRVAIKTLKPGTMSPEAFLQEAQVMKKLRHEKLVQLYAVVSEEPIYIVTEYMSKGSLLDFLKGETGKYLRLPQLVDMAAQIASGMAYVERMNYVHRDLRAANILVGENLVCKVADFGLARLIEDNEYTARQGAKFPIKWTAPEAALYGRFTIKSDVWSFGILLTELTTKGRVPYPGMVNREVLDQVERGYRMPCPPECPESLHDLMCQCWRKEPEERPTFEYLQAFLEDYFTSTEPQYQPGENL
Chain of AURKA (O14965 whole entry): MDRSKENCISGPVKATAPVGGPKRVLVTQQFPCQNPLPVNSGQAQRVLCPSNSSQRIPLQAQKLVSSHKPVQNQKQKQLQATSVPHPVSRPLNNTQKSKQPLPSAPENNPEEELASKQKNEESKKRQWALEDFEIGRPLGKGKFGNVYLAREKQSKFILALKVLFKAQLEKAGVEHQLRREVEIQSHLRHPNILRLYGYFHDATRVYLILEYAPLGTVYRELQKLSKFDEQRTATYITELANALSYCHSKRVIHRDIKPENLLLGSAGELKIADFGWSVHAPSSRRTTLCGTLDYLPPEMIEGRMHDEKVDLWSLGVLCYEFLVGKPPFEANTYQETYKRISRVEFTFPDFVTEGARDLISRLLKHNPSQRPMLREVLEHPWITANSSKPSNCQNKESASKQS
Chain of PIM1 (P11309 whole entry): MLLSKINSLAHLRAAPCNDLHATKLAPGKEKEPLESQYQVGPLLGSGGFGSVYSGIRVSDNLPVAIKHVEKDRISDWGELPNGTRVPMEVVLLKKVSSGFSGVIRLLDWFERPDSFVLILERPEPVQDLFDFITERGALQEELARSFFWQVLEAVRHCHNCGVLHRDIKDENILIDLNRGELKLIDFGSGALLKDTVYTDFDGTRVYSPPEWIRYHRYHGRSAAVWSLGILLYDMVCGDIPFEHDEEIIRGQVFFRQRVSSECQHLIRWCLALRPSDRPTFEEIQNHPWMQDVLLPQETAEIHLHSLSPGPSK
Chain of FAK (Q05397 whole entry): as the sequence (Q05397 whole entry) above

IC50 ([7]; Homo sapiens, MV4-11) [nM] | SMILES | IC50 [7] [nM] | proliferation inhibition in words, MV4-11 / AML [7] | inhibition at 0.5 µM [1] [%] | inhibition at 0.5 µM [2] [%] | inhibition at 0.5 µM [3] [%] | inhibition at 0.5 µM [4] [%] | inhibition at 0.5 µM [5] [%] | inhibition at 0.5 µM [6] [%] | Kd [8] [nM] | Kd [9] | Kd [10] [nM] | Kd [11] [nM] | Kd [12] [nM] | Kd [13] [nM] | Kd [14] [nM] | Kd [15] [nM] | Kd [16] [nM] | Kd [17] [nM] | Kd [18] [nM] | other results
721 ± 5.8 | Cc1ccc(C(=O)Nc2ccc(CN3CCN(C)CC3)c(C(F)(F)F)c2)cc1C#Cc1cc(N)nc2ccccc12 [HSN285] |  | neither potent inhibitors of FLT3 nor active against MV4-11 or MOLM-14 |  |  |  |  |  |  |  |  |  |  |  |  |  |  |  |  |  | 
135 ± 5.87 | COc1cc2nc(N)nc(C#Cc3cc(C(=O)Nc4ccc(CN5CCN(C)CC5)c(C(F)(F)F)c4)ccc3C)c2cc1OC [HSN325] |  |  | 7 | 6 | 0 | 0 | 0 | 0 |  |  |  |  |  |  |  |  |  |  |  | 

More lines, now with the values behind:

SMILES | IC50 ([7]; Homo sapiens, MV4-11) [nM] | IC50 [7] [nM] | proliferation inhibition in words, MV4-11 / AML [7] | inhibition at 0.5 µM [1] [%] | inhibition at 0.5 µM [2] [%] | inhibition at 0.5 µM [3] [%] | inhibition at 0.5 µM [4] [%] | inhibition at 0.5 µM [5] [%] | inhibition at 0.5 µM [6] [%] | Kd [8] [nM] | Kd [9] | Kd [10] [nM] | Kd [11] [nM] | Kd [12] [nM] | Kd [13] [nM] | Kd [14] [nM] | Kd [15] [nM] | Kd [16] [nM] | Kd [17] [nM] | Kd [18] [nM] | other results
CN(C)CC(O)CNC(=O)c1ccc(C#Cc2c(N)ncc3ccc(Cl)cc23)cc1 (stereo not shown) [HSM1702] |  | 71 ± 1.1 |  |  |  |  |  |  |  |  |  |  |  |  |  |  |  |  |  |  | Percentage kinase inhibition CDK9/cyclin K [1]: 53%; Percentage kinase inhibition EPHA3 [2]: 0%; Percentage kinase inhibition FAK/PTK2 [3]: 6%; Percentage kinase inhibition IGF1R [4]: 3%; Percentage kinase inhibition IRR/INSRR [5]: 10%; Percentage kinase inhibition TAOK1 [6]: 12%
Cc1ccc(C(=O)Nc2ccc(CN3CCN(C)CC3)c(C(F)(F)F)c2)cc1C#Cc1c(N)ncc2ccc(Cl)cc12 [HSN286] |  |  |  | 24 | 96 | 0 | 0 | 0 | 0 | 120 | 27.6 nM and 26 nM | 110 | 7.9 | 7.2 | > 30000 | 3.9 | 5100 | 28 | 3.6 | 42 | Kd [19]: 11 nM; Kd [20]: 26000 nM; Kd [21]: 11000 nM; Kd [22]: > 30000 nM; Kd [23]: 16 nM; IC50 [24]: 4.5 nM
Cc1ccc(C(=O)Nc2ccc(CN3CCN(C)CC3)c(C(F)(F)F)c2)cc1C#Cc1cnc(N)c2ccccc12 [HSN334, 3-((1-aminoisoquinolin-4-yl)ethynyl)-4-methyl-N-(4-((4-methylpiperazin-1-yl)methyl)-3-(trifluoromethyl)phenyl)benzamide] | < 1 | 1.38 ± 0.1 | potent proliferation inhibitors |  |  |  |  |  |  | 120 | 19 nM |  | 12 | 4.4 |  |  |  |  |  |  | 
Cc1ccc(C(=O)Nc2ccc(CN3CCN(C)CC3)c(C(F)(F)F)c2)cc1C#Cc1cnc(N)c2ncccc12 [HSN356, 3-((8-amino-1,7-naphthyridin-5-yl)ethynyl)-4-methyl-N-(4-((4-methylpiperazin-1-yl)methyl)-3-(trifluoromethyl)phenyl)benzamide] |  |  | potent proliferation inhibitors |  |  |  |  |  |  | 19 | 6.7 nM | 28 | 1.2 | 2.5 | 5100 | 1.2 | 4700 | 38 | 2.5 | 7.2 | Kd [19]: 5.4 nM; Kd [20]: > 30000 nM; Kd [21]: 19000 nM; Kd [22]: 9600 nM; Kd [23]: 15 nM; IC50 [24]: 14.9 nM
